We go through 53 compounds from ChEMBL document CHEMBL1201862, “PubChem BioAssay data set” (2004).

Activity calls are given as the source filed them.

In one test the target is Cytochrome P450 2C19 (Homo sapiens, UniProt P33261). Kind of test: Cytochrome panel assay with activity outcomes. Panel member name: p450-cyp2c19 Compounds with AC50 equal or less than 10 uM are considered active. Format: functional. To be noted: read-out: AC50.
The target of a further test is Cytochrome P450 3A4 (Homo sapiens, UniProt P08684).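 Further: CYP3A4 tested as one member of a cytochrome P450 panel screen.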
Test [1] in a line: HEp-2 cell cytotoxicity, dose response, cytotoxicity control for RSV inhibitor project, HTS (AID 2410). Particulars: human respiratory syncytial virus. Type of test: functional.
The nature of test [2]: inhibitors of intracellular T. cruzi replication, confirmation, NIH3T3 host cells, beta-gal luminescence (AID 2044).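 Further: intracellular parasites grown in NIH/3T3 mouse fibroblasts as host cells; luminescent beta-galactosidase reporter signal from transgenic T. cruzi replicating inside host cells; inhibitors lower the luminescence signal.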 Format: functional, cell-based.
Test [3] can be described thus: cytotoxicity toward NIH3T3 fibroblasts, dose response, counter-screen, cell-based, ATP luminescence, mouse fibroblasts (AID 2010).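 Further: cells exposed to compound for about 90 hours before reading.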 Format: functional.
For the next test, the target named is Cytochrome P450 2D6 (Homo sapiens, UniProt P10635).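 Further: CYP2D6 member of a cytochrome P450 panel assay.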
The next test concerns the target T1, Streptokinase A (Streptococcus pyogenes serotype M1, UniProt P10520).
T1 sequence (P10520 whole entry): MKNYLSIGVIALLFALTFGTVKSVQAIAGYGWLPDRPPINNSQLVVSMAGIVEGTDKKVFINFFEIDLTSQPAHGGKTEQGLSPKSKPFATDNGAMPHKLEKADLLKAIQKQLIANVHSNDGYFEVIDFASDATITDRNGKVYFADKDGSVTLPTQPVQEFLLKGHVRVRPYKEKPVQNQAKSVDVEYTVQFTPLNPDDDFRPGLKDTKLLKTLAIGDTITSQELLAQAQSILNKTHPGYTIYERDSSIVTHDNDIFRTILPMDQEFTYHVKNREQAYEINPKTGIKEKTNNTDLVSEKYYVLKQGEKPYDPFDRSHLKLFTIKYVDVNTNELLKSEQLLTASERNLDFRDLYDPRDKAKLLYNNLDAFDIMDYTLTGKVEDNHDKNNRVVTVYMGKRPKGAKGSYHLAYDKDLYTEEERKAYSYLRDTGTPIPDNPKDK
Kind of test: S. pyogenes streptokinase expression inhibitors, potency, dose response, plasminogen activation absorbance, OD405 (AID 1914).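 Further: secreted streptokinase activity via plasminogen activation per viability signal from cell pellet.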 Format: functional, Streptococcus pyogenes M1 GAS.

Test [4] relates to Streptococcus sp. 'group A'. Kind of test: growth inhibition of control SK(-) GAS strain, dose response, counter-screen for streptokinase expression inhibitor project, luminescence, kanamycin, BacTiterGlo, confirmation (AID 1900). Format: functional, organism-based.
Another test relates to Streptococcus. Briefly: Group A Streptococcus viability loss, dose response, counter-screen for streptokinase expression inhibitor project, luminescence, BacTiterGlo (AID 1915).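 Further: potency for reduction of bacterial viability or growth.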 Format: functional, organism-based. Background: Counterscreens check selectivity or assay interference.

Sequence of Cytochrome P450 2D6 (P10635 whole entry): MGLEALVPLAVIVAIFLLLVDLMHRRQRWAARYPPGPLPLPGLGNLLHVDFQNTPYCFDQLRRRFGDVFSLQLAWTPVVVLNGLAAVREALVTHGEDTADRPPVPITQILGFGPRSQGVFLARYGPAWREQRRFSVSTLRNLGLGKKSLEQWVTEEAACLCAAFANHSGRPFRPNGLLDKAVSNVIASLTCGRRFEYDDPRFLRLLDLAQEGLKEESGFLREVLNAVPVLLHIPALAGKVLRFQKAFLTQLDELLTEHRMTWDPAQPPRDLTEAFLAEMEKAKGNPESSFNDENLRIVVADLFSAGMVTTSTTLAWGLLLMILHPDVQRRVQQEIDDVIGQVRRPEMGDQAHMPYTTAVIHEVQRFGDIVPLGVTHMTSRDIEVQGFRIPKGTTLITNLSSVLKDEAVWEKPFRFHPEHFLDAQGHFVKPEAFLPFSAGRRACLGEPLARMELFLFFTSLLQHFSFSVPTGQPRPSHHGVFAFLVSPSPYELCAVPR
Sequence of Cytochrome P450 3A4 (P08684 whole entry): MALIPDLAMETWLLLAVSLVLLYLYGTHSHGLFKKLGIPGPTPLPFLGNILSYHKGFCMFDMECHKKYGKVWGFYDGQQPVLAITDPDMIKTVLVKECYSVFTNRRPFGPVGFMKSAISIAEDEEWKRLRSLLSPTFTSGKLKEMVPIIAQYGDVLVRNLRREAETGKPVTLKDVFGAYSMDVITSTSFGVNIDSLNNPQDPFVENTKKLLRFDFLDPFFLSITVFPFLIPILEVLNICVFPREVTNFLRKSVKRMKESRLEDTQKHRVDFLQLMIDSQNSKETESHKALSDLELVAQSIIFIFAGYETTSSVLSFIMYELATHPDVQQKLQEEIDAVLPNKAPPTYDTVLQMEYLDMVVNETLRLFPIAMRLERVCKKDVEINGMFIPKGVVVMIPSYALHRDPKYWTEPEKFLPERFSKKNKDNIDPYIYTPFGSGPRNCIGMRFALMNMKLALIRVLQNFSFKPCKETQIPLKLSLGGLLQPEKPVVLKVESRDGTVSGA
Sequence of Cytochrome P450 2C19 (P33261 whole entry): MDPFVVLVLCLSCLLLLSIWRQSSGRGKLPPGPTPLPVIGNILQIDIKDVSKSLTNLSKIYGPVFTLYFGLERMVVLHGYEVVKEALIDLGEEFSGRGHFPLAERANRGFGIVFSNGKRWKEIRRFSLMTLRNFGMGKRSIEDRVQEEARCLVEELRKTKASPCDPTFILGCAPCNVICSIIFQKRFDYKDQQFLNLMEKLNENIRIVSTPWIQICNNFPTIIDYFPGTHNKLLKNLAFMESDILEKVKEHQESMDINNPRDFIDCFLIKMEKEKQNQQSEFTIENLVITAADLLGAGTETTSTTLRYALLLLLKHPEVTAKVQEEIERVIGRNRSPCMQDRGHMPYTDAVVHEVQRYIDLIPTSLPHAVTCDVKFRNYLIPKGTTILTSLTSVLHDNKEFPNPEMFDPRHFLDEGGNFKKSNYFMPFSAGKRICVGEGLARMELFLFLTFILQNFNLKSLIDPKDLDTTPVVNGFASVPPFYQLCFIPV

For the compound `CCc1ncc(CO)n1Cc1cccc2ccccc12`, the AC50 (as a rule, the concentration giving half of the maximal activity seen) at Cytochrome P450 2C19 was 0.398 µM (inconclusive).
On to `Cc1ccccc1S(=O)(=O)c1c(C)cc(-c2ccccc2)nc1O`, for which, at Cytochrome P450 3A4, the AC50 is 28.2 µM (inconclusive).
Turning to `N#C/C(=C\c1ccc(OCC(N)=O)cc1)c1ccccc1`, in test [1], the cytotoxic concentration (CC50) (as a rule, the concentration that lowers cell viability or growth by half) was 36.8 µM (active).
In the case of `COc1cccc(CC2(CO)CCCN(C/C=C/c3ccccc3OC)C2)c1` (centres undefined), the EC50 (commonly the midpoint of the concentration-response curve) in test [2] was 0.209 µM (active); in [3], > 60 µM (inconclusive).
Regarding `COC(=O)[C@@]1(Cc2ccc(OC)cc2)[C@H]2c3cc(C(=O)N4CCCC4)n(CCc4ccc(O)c(O)c4)c3C[C@H]2CN1C(=O)c1ccccc1`, the AC50 at Cytochrome P450 2D6 is 39.8 µM (inconclusive).
Turning to `CCC(=O)N(CCC(Cc1ccccc1)c1ccc2c(c1)OCO2)Cc1ccccc1F` (centres undefined), the figures for the half-maximal effective concentration (EC50) (at Streptokinase A; in test [4]; with Streptococcus) were 10.7 µM (active), 12.2 µM (active) and 40.3 µM (active), respectively.
As to `COc1ccc(/C=C2\SC(=O)N(CCNC(=O)C3CC(=O)N(c4ccccc4)C3)C2=O)cc1` (centres undefined), the AC50 on Cytochrome P450 2D6 is 20 µM (inconclusive).
Still for that read-out and setting: the value for `CCCN1CCN(CCCNC(=O)Cn2nc(-c3ccc(C)cc3)ccc2=O)CC1` was 20 µM (inconclusive); that for `C/C(CCN1CCCc2nc(C)c(C)cc21)=N\OC[C@@H](O)COCc1ccco1` was 3.16 µM (inconclusive).
On to `O=C(COn1nnc2ccc(C(F)(F)F)cc21)Nc1nnc(-c2ccccc2)o1`, for which the EC50 in test [4] was 2.77 µM (active); with Streptococcus, 3.65 µM (active).
Regarding `Cc1ccc(C)c(/C=N/NC(=S)NCCc2ccccc2)c1`, the EC50 is > 150 µM (not active) at Streptokinase A, 32.3 µM (active) in test [4] and > 150 µM (not active) in the test on Streptococcus.
In the case of `CNc1ccnc(-c2ccccc2C(F)(F)F)n1`, the AC50 on Cytochrome P450 2C19 and at Cytochrome P450 3A4 was 25.1 µM (inconclusive) each time.
With `O=C(Nc1ccccc1)N1CCCC2(CCN(C(=O)c3cccc(F)c3)CC2)C1`, at Cytochrome P450 2C19, the concentration at half-maximal activity (AC50) is 10 µM (inconclusive).
Regarding `CC[C@]1(c2cccc(O)c2)CCCCN(C)C1`, the AC50 at Cytochrome P450 2D6 was 10 µM (inconclusive).
As for `COc1ccccc1-c1cc(-c2ccccc2)nc(SCC(=O)O)c1C#N`, the 50% effective concentration (EC50) on Streptokinase A is 1.72 µM (active); in [4] it was 3.36 µM (active); in the test with Streptococcus it was 13.4 µM (active).
`S=C(Nc1ccccc1)Nc1ccccc1C#Cc1ccccc1`: the AC50 at Cytochrome P450 2D6 was 15.8 µM (inconclusive); at Cytochrome P450 3A4, 7.94 µM (inconclusive).
The matching figures for `O=c1c(CCc2ccccc2)nc2cnc(N3CCNCC3)nc2n1C1CC1`: 39.8 µM (inconclusive) and 12.6 µM (inconclusive).
`CCCS(=O)(=O)N1CCCC(C(=O)NCCN(C)Cc2ccccc2)C1` (centres undefined): the AC50 on Cytochrome P450 2D6 is 5.01 µM (inconclusive).
`O=c1c(-c2ccc(F)cc2)nc2cncnc2n1-c1ccccc1`: the AC50 at Cytochrome P450 2D6 is 20 µM (inconclusive); at Cytochrome P450 3A4, 12.6 µM (inconclusive).
For the compound `COCCNc1nc(-c2ccc(N(C)C)cc2)nc2ccccc12`, the AC50 on Cytochrome P450 2D6 is 39.8 µM (inconclusive).
Take `O=c1cnc2cnc(N3CCNCC3)nc2n1Cc1cccs1`: the values for the concentration at half-maximal activity (AC50) at Cytochrome P450 2D6 and at Cytochrome P450 3A4 were 20 µM (inconclusive) and 15.8 µM (inconclusive), respectively.
Take `CN(C)c1ncc2nc(-c3cccs3)c(=O)n(Cc3cccs3)c2n1`: the concentration at half-maximal activity (AC50) at Cytochrome P450 3A4 is 3.16 µM (inconclusive).
With `Cc1ccc(S(=O)(=O)Nc2ccc(Cl)cc2)cc1NC(=O)c1cc2c(s1)CCCC2`, the EC50 is 1.18 µM (active) in test [2]; > 150 µM (not active) at Streptokinase A; 4.39 µM (active) in [4]; 25.8 µM (active) in [3]; 14.9 µM (active) in the test on Streptococcus.
Take `COc1ccc(OC)c(-c2cc(C(=O)Nc3cccc(Cl)c3)no2)c1`: the figures for the EC50 in [2] and in test [3] were 2.43 µM (active) and > 30 µM (not active), respectively.
Regarding `CN(C)c1ccc(/C=N\NC(=O)c2cnc3ccccc3c2)cc1`, the AC50 at Cytochrome P450 3A4 was 3.98 µM (inconclusive).
On to `O=C(COc1cccnc1[N+](=O)[O-])N1N=C(c2ccc(Cl)cc2)CC1c1ccco1` (centres undefined), for which the results for the concentration for a half-maximal effect (EC50) in [2] and in [3] were 2.8 µM (active) and > 60 µM (not active), respectively.
Taken in the same sequence, the figures for `COc1ccc2sc(N(CCCN(C)C)C(=O)c3ccc(S(=O)(=O)N4CCCc5ccccc54)cc3)nc2c1` were 0.139 µM (active) and 5.35 µM (active).
For the compound `CCc1ccc(C2=Nn3c(nnc3-c3cccs3)SC2)cc1`, on Cytochrome P450 2C19, the concentration at half-maximal activity (AC50) is 5.62 µM (inconclusive).
With `CC(C)(C)c1ccc(O)c(/N=C/c2c(O)ccc3ccccc23)c1`, the half-maximal effective concentration (EC50) on Streptokinase A is > 150 µM (not active); in test [4], 5.5 µM (active); in the test on Streptococcus, > 150 µM (not active).
On to `CCCNC(=O)OC[C@@H]1O[C@H](c2ccccc2)C=C[C@@H]1Oc1ccc(OC)cc1`, for which the concentration at half-maximal activity (AC50) at Cytochrome P450 2D6 was 3.16 µM (inconclusive).
As to `Cc1c(Cc2ccccc2)c(=O)oc2cc(OCc3ccc(C(=O)O)cc3)ccc12`, the 50% effective concentration (EC50) at Streptokinase A was > 150 µM (not active); in [4], 7.39 µM (active); in the test with Streptococcus it was > 50 µM (not active).
As to `COc1ccc(C2N=C(N)N=C(N)N2c2ccccc2OC)cc1OC` (centres undefined), the concentration at half-maximal activity (AC50) on Cytochrome P450 2C19 was 39.8 µM (inconclusive).
Take `CCSc1nnc(NC(=O)c2nc(-c3ccccc3)n(-c3ccccc3)n2)s1`: the concentration giving a half-maximal response (EC50) was 20.2 µM (active) on Streptokinase A, 7.28 µM (active) in test [4] and 16.5 µM (active) in the test on Streptococcus.
For the compound `Nc1cc(Cl)nc(N/N=C/c2ccccc2[N+](=O)[O-])n1`, the AC50 at Cytochrome P450 2C19 was 8.91 µM (inconclusive).
On to `Cc1cc(Br)ccc1NC(=O)CN1C(=O)C2C3CC(c4ccccc4)C(C3)C2C1=O` (centres undefined), for which the half-maximal effective concentration (EC50) in test [2] was 2.6 µM (active); in [3], > 60 µM (not active).
Consider `COc1cccc(-c2nccc(NCc3cccnc3)n2)c1`, for which the AC50 at Cytochrome P450 2D6 is 25.1 µM (inconclusive).
Consider `N#Cc1cccc(NC(=O)N2CC[C@@]3(CCCNC3)C2)c1`, for which the AC50 on Cytochrome P450 3A4 is 25.1 µM (inconclusive).
Consider `CC(CC(=O)Nc1nc2ccccc2[nH]1)c1ccccc1` (centres undefined), for which the EC50 (at Streptokinase A; in [4]; in the test with Streptococcus) was > 150 µM (not active) throughout.
Turning to `COc1ccc(N2CCN(CC(=O)Nc3nc4c(s3)CC(C)CC4)CC2)cc1` (centres undefined), the half-maximal effective concentration (EC50) is > 150 µM (not active) at Streptokinase A, 23.8 µM (active) in [4] and > 150 µM (not active) with Streptococcus.
For the compound `CC(C)=CCC/C(C)=C/CO/N=C1/C[C@@H](O)[C@@H](O)[C@@H]2[C@H]3C(=O)N(c4ccc(F)cc4F)C(=O)[C@@H]3CC[C@H]12`, the AC50 on Cytochrome P450 3A4 was 3.98 µM (inconclusive).
As for `Cn1nc(C(=O)NC2CCCCC2)c2ccccc2c1=O`, the values for the AC50 at Cytochrome P450 2D6 and at Cytochrome P450 3A4 were 10 µM (inconclusive) and 5.01 µM (inconclusive), respectively.
`CN(C)Cc1ccccc1-c1nccc(Nc2ccc(F)cc2)n1`: the half-maximal activity concentration (AC50) on Cytochrome P450 3A4 was 15.8 µM (inconclusive).
Consider `Cn1c(S)nnc1-c1cc(Br)ccc1O`, for which the 50% effective concentration (EC50) in test [4] is 11 µM (active); in the test with Streptococcus it was > 150 µM (not active).
Take `COc1ccccc1N1CCN(C/C=C/c2ccc(N(C)C)cc2)CC1`: the half-maximal effective concentration (EC50) was 1.46 µM (active) in test [2] and > 60 µM (not active) in [3].
The matching figures for `Cc1nn(Cc2c(F)c(F)c(F)c(F)c2F)c(C)c1NC(=O)c1ccc(COc2ccc(Cl)cc2Cl)o1`: 1.11 µM (active) and > 60 µM (not active).
For `Cc1cccc(-n2nc([N+](=O)[O-])c(NCc3cccnc3)[n+]2[O-])c1`, the EC50 is 0.582 µM (active) in test [2] and > 60 µM (not active) in test [3]. Also, the concentration at half-maximal activity (AC50) on Cytochrome P450 2D6 was 12.6 µM (inconclusive).
In the case of `Cc1ccc(Sc2cc(C(=O)NCCCN(C)C)c3ccccc3n2)cc1`, the EC50 in test [2] was 0.133 µM (active); in test [3] it was 14.6 µM (active).
For the compound `COc1ccc(CNc2cc(-c3ccccc3Cl)ncn2)c(OC)c1`, at Cytochrome P450 2D6, the AC50 was 39.8 µM (inconclusive).
On to `Cc1c(-c2ccc(O)cc2)nn(-c2ccc(O)cc2)c1-c1ccc(OCCN2CCCCC2)cc1`, for which the AC50 at Cytochrome P450 3A4 is 3.16 µM (inconclusive).
For the compound `COc1ccc(N2CC(C(=O)Nc3nnc(SCc4cccnc4)s3)CC2=O)cc1` (centres undefined), the EC50 (on Streptokinase A; in test [4]; in the test with Streptococcus) was > 150 µM (not active) each time.
On to `CCCCCC(=O)Nc1cccc(C2=NOC3(C2)C[C@@H](C(N)=O)N(C(=O)c2ccc(Cl)cc2)C3)c1` (some centres undefined), for which the 50% effective concentration (EC50) is 0.374 µM (active) in test [2] and > 30 µM (not active) in test [3].
With `Cc1ccc(C(c2nnnn2C2CCCC2)N2CCN3CCCC3C2)cc1` (centres undefined), the AC50 at Cytochrome P450 2C19 is 31.6 µM (inconclusive).
On to `COc1ccc(C2C(=O)N(CCc3ccccc3)CC(=O)N2C2CCCC2)cc1` (centres undefined), for which the AC50 on Cytochrome P450 2D6 was 14.1 µM (inconclusive).
